One data set has as its target T1, CCL2 (MCP-1) (Homo sapiens, UniProt P41597).
T1 construct: endogenous in cells; host or cells: human monocytes
T1 sequence (P41597 1-360 isoform P41597-2): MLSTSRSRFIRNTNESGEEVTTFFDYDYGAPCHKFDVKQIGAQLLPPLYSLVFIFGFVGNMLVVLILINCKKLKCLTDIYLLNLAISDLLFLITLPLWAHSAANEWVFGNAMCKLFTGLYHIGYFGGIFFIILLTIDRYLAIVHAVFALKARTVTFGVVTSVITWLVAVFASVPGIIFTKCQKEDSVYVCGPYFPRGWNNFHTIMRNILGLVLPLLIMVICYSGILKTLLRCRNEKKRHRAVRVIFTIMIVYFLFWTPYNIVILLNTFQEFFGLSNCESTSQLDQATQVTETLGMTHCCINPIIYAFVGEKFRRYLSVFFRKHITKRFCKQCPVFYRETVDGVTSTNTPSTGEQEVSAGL
Nature of the data set: Blocking CCL2 (MCP-1) chemotaxis at low concentration (FIG. 3). It counts as cell-based. The conditions noted are these: compounds at 10^−14 M. The source says: FIG. 3 illustrates the effects of several all-D amino acid peptides in blocking CCL2 (MCP-1) chemotaxis at low concentration. The amino acid sequences of these peptides are: SSTYR (SEQ ID NO:3), TTSYT (SEQ ID NO:4) and NTSYR (SEQ ID NO:7)
In order to show the generalizability of the all-D-amino acid modifications we synthesized additional examples and tested them for antagonism of chemokines receptors implicated in the subject diseases, FIG. 3
Additional All-D-(Pepntapeptides) from V2 Region Block CCR5/CCR2 Human Monocyte Chemotaxis
In FIG. 3, the effects of RAPs in blocking CCL2 (MCP-1) chemotaxis was illustrated.

The target of the next data set is T2, CCR2 (MCP-1) (Homo sapiens, UniProt P41597).
T2 construct: Purified human monocytes were treated with 20 pM of All-D-pentapeptides for 30 minutes; endogenous in cells; host or cells: purified human monocytes
Description: CCR2 (MCP-1) elicited chemotaxis of human monocytes, all-D-pentapeptides (FIG. 4). The format is cell-based. To be noted: 20 pM peptide 30 minutes; MCP-1 0.6 nM, 2 hours. As to the method:
Purified human monocytes were treated with 20 pM of All-D-pentapeptides for 30 minutes prior to chemotaxis against human MCP-1 (0.6 nM) for 2 hours. […] A representative experiment is shown comprising triplicate determinations and is presented as relative fluorescence units, Mean±SEM.

The target in a further data set is T3, MCP-1/CCR2 (Homo sapiens, UniProt P41597).
T3 construct: endogenous in cells; host or cells: human monocytes
Description: MCP-1/CCR2 elicited β-integrin-mediated adhesion of human monocytes to human fibronectin (FIG. 5). It counts as cell-based. To be noted: 10 minutes pretreatment. Here is the method: The results are of interest as approved treatments for MS include the immunosupressive monoclonal antibody therapy “Tysabri”, which blocks T cell binding to cellular integrins, and thereby infiltration of inflammatory cells into brains of MS patients.
All-D-(IDNYT) Inhibition of Human Monocyte and THP-1 Cell β-Integrin-Mediated Adhesion to hu-Fibronectin
Human monocytes were treated with the indicated doses of all-D-(IDNYT) for 10 minutes prior to adherence to the β-integrin human fibronectin. Data is the average of two separate experiments, conducted with triplicate determinations. Data are presented as Mean±SEM of the normalized adherence response from two experiments. The IC50 for inhibition of MCP-1 stimulated adherence was generated using a nonlinear inhibition curve fit in GraphPad Prism Version 5.0.

For another data set, the system named is inflammatory cytokines. The conditions noted are these: Hu; cited from earlier work.
A short description of data set [1]: Pharmacokinetic study following intravenous and oral administration, LC-MS/MS of plasma. The format is in vivo, male Sprague Dawley rat. Here is the method:
A pharmacokinetic study of all-D [TTNYT] (RAP-103) (SEQ ID NO:2) following intravenous and oral administration was conducted at a target dose level of 1 mg/kg in the male Sprague Dawley rat. The concentration of RAP-103 in each plasma and brain sample was measured using a suitable LC-MS/MS assay. The assay used was a research grade assay (RGA-1) which was established by assessing the accuracy, precision and the linearity of the method. Plasma concentrations generated were used to evaluate the pharmacokinetic parameters of all-D-TTNYT (RAP-103).
The dose formulation was administered intravenously to multiple animals as a slow bolus over ca 30 s via the tail vein and to a different group of animals orally via gastric gavage at a target dose volume of 1 mL/kg, to achieve a target dose level of 1 mg/kg. The dose volume administered was calculated according to the bodyweight of the animal on the day of dosing. The weight of administered dose was recorded. […] Results expressed as ng/mL

The next data set has as its target CCR2 (Homo sapiens, UniProt P41597). To be noted: 30 min pretreatment; human MCP-1 50 ng/mL, 90 min; cited from earlier work.
Another data set concerns the target CCR5 (Homo sapiens, UniProt P51681). The conditions noted are these: 30 min pretreatment; human MIP-1β 50 ng/mL, 90 min; cited from earlier work.
For data set [2], the system named is inflammatory cytokines, chemokines, and receptors. The conditions noted are these: Rat; oral gavage 0.05-1 mg/kg, 7 days; cited from earlier work.
Data set [3] has the same test system. To be noted: Rat; oral gavage 0.05-1 mg/kg, 7 days. The source says:
The specific experimental details are provided in Padi, 2012.

Data set [4] relates to rats with partial ligation of the sciatic nerve. The conditions noted are these: cited from earlier work.
For a further data set, the target named is TLR4 (human, UniProt O00206 24-839). Description: cell-based or functional assay.

Non-standard residues stand in square brackets, D forms with d. No end group written: not given here. Some results are limits rather than exact numbers.

T2 sequence (P41597 whole entry): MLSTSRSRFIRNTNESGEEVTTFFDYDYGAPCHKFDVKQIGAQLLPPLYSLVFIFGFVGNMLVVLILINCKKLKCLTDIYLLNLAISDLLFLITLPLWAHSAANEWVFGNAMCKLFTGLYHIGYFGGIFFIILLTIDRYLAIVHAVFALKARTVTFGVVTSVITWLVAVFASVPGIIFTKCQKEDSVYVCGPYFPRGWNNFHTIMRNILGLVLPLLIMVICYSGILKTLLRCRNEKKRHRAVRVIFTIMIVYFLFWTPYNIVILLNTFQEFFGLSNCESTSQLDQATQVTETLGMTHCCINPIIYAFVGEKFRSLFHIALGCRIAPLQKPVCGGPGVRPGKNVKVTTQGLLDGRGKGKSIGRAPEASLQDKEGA
Chain of TLR4 (O00206 24-839): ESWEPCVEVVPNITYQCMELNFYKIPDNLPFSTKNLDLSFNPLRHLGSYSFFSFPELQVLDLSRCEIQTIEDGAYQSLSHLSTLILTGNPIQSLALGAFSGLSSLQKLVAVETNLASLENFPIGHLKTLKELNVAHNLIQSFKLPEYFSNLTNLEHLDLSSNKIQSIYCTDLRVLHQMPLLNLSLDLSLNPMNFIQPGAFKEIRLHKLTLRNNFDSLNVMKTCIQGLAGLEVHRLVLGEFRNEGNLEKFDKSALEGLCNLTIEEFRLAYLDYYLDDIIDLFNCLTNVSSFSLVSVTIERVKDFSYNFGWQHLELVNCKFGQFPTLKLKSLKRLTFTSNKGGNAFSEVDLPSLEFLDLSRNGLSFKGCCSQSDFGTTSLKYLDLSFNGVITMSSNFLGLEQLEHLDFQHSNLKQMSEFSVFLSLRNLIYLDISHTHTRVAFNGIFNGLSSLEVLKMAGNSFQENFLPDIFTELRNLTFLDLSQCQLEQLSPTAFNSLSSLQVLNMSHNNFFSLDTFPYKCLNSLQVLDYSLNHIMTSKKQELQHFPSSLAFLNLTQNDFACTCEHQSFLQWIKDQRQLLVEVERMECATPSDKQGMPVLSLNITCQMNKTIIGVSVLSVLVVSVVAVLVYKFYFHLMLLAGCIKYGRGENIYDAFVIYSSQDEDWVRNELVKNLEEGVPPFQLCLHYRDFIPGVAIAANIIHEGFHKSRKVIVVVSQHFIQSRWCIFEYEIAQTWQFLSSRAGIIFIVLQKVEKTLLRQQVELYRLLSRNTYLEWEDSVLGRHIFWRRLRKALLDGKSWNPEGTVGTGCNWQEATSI
T3 sequence (P41597 whole entry): as the sequence (P41597 whole entry) above
Chain of CCR2 (P41597 whole entry): as above
Chain of CCR5 (P51681 whole entry): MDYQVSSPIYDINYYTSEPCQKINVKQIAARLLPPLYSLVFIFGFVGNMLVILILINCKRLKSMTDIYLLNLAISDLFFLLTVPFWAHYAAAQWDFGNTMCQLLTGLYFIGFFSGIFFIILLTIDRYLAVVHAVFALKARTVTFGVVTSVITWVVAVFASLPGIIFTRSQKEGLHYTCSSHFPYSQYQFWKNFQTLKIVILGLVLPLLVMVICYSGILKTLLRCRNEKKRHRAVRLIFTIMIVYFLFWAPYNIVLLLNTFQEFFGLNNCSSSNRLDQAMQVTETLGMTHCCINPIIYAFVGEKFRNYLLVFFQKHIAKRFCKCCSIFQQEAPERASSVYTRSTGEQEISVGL

Consider SSTYR ([dS][dS][dT][dY][dR]), for which the “blocking CCL2 (MCP-1) chemotaxis” value in the data set with CCL2 (MCP-1) is “retain potency”.

On to NTRYR, for which the “inhibition of CCR2 (MCP-1) elicited chemotaxis” value (“inhibition of CCR2” for short) at CCR2 (MCP-1) is on record as “potently block”.

On to IDNYT ([dI][dD][dN][dY][dT]), for which, in the data set with MCP-1/CCR2, the “blocking of MCP-1 elicited adhesion to human fibronectin” value is recorded as “potently blocking”. For the same molecule, the “inhibition of CCR2” value with CCR2 (MCP-1) is recorded as “potently block”.

In the case of D-ala1-peptide T-amide [RAP-101], in the data set on inflammatory cytokines, the IL-1 change result is on record as “decrease”, the IL-6 change entry is “decrease”, the IL-8 change entry is “decrease” and the TNFα change entry is given as “decrease”.

In the case of NTSYR ([dN][dT][dS][dY][dR]), the “blocking CCL2 (MCP-1) chemotaxis” value with CCL2 (MCP-1) is on record as “retain potency”.

“NTSYG ([dN][dT][dS][dY]G; not fully specified (residue 5))”: in the data set with CCR2 (MCP-1), the “inhibition of CCR2” value is on record as “potently block”.

As to ETWYS ([dE][dT][dW][dY][dS]), the “inhibition of CCR2” value with CCR2 (MCP-1) is “potently block”.

As for TTSYT ([dT][dT][dS][dY][dT]), the “blocking CCL2 (MCP-1) chemotaxis” value in the data set with CCL2 (MCP-1) is “retain potency”.

As for `C[C@H](O)[C@@H](N)C(=O)N[C@@H](C(=O)N[C@H](CC(N)=O)C(=O)N[C@H](Cc1ccc(O)cc1)C(=O)N[C@@H](C(=O)O)[C@H](C)O)[C@H](C)O` [RAP-103, All-D-TTNYT], the “time of peak levels in plasma” value in [1] (1 mg/kg, male rat) lay within 10 to 15 min. In addition, the “tolerability of dose administrations” value in [1] (intravenous and oral, 1 mg/kg, male rat) is recorded as “well tolerated”. For the same molecule, in data set [1] (male, Sprague-Dawley, rat, plasma, po, 1 mg/kg, oral 1 mg/kg, 0.25 h, individual animals 004M, 005M, 006M, read-out: plasma concentration), the level at 0.25 h was determined as 6.42 ng/mL. Also, the level at 0.5 h in data set [1] (male, Sprague-Dawley, rat, plasma, po, 1 mg/kg, oral 1 mg/kg, 0.5 h, individual animals 004M, 005M, 006M, read-out: plasma concentration) is 10.2 ng/mL. For the same molecule, the level at 2 h in [1] (male, Sprague-Dawley, rat, plasma, po, 1 mg/kg, oral 1 mg/kg, 2 h, individual animals 004M, 005M, 006M, read-out: plasma concentration) amounted to 12 ng/mL. In data set [1] (male, Sprague-Dawley, rat, plasma, po, 1 mg/kg, oral 1 mg/kg, 4 h, individual animals 004M, 005M, 006M, read-out: plasma concentration), the level at 4 h amounted to 9.09 ng/mL. Further, in data set [1] (male, Sprague-Dawley, rat, plasma, po, 1 mg/kg, oral 1 mg/kg, 8 h, individual animals 004M, 005M, 006M, read-out: plasma concentration), the level at 8 h is 6.67 ng/mL. In addition, the plasma concentration entry in [1] (oral 1 mg/kg, male rat, 0.083 h, individual animals 004M, 005M, 006M) is listed as “<LLOQ”. Moreover, the plasma concentration result in data set [1] (oral 1 mg/kg, male rat, 0.25 h, individual animals 004M, 005M, 006M, 1 mg/kg) was “<LLOQ”. Moreover, in data set [1] (oral 1 mg/kg, male rat, 1 h, individual animals 004M, 005M, 006M), the plasma concentration entry is listed as “<LLOQ”. Also, the plasma concentration result in data set [1] (oral 1 mg/kg, male rat, 2 h, individual animals 004M, 005M, 006M, 1 mg/kg) is on record as “<LLOQ”. The plasma concentration entry in data set [1] (oral 1 mg/kg, male rat, 4 h, individual animals 004M, 005M, 006M, 1 mg/kg) is given as “<LLOQ”. Further, in data set [1] (oral 1 mg/kg, male rat, 8 h, individual animals 004M, 005M, 006M, 1 mg/kg), the plasma concentration result is reported as “<LLOQ”. Moreover, the plasma concentration result in data set [1] (oral 1 mg/kg, male rat, 12 h, individual animals 004M, 005M, 006M) is given as “<LLOQ”. In addition, the “blocking of MCP-1-elicited chemotaxis” value on CCR2 is “potently blocking”. The “blocking of MIP-1β-elicited chemotaxis” value on CCR5 is listed as “potently blocking”. In data set [2], the IL-1β change result is “decrease” and the IL-6 change result is “decrease”. Further, in data set [3], the CCL2 change entry is “decrease”, the CCL3 change entry is listed as “decrease”, the CCR2 change result is on record as “decrease” and the CCR5 change entry is “decrease”. Also, in data set [3], the MCP-1 change result was “decrease”, the MIP-1α change result is recorded as “decrease” and the TNFα change result is “decrease”. Further, in data set [4] (0.2-1 mg/kg, days 8 to 12), the already established hypersensitivity entry is recorded as “reverses”. In [4] (oral 0.05-1 mg/kg for 7 days), the “development of thermal hyperalgesia” value is “inhibits the development” and the mechanical allodynia entry is recorded as “fully prevents”. Besides, in data set [4] (peripheral nerve injury), the monocyte infiltration entry is “reduce” and the spinal microglial activation entry is “reduce”.

B1: all-D[TTNYT] (RAP-103) (peptide)
peptide: [dT][dT][dN][dY][dT]
Take B1: the “IC50 for inhibition of LPS-induced TNFα production in monocyte-derived iDC” value with TLR4 was ~0.1 pM.

(Values after US20150376235A1, “Peptides for the Treatment of Immune Reconstitution Inflammatory Syndrome (IRIS) and Related Diseases” (priority 2014, published 2015).)
